Test results taken from patent US8362000B2, “Azetidinyl diamides as monoacylglycerol lipase inhibitors” (Janssen Pharmaceutica NV, priority 2009, dated 2013).
Where a chain is given by its changes, count along the chain named. Read-outs that look alike come from different tables or passages of the source.

What was measured:
[1] = biological target: T1, purified wild type MGL (wt-MGLL 6H-11-313) (Homo sapiens, UniProt Q99685)
T1 sequence (Q99685 1-303): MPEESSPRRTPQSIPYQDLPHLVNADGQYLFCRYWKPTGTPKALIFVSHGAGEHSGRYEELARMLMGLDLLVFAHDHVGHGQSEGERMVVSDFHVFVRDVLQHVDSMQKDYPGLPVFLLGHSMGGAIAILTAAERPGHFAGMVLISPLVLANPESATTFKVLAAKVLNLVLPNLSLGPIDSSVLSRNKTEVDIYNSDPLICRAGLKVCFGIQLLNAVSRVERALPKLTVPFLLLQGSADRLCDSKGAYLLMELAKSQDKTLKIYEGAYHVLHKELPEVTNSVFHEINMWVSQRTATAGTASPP

MGL = biological target: T2, MGL (Rattus norvegicus, UniProt Q8R431); test: 2-AG accumulation assay in rat brain homogenate; type: biochemical; settings: rat brain homogenate; compound 1 μM; 2-AG accumulation as percent of vehicle; read-out: Rat Brain 2AG % VehCntrl (%) @ 1 μM
T2 construct: one g rat brain was homogenized using a Polytron homogenizer; from tissue; host or cells: rat brain homogenate
T2 sequence (Q8R431 1-303): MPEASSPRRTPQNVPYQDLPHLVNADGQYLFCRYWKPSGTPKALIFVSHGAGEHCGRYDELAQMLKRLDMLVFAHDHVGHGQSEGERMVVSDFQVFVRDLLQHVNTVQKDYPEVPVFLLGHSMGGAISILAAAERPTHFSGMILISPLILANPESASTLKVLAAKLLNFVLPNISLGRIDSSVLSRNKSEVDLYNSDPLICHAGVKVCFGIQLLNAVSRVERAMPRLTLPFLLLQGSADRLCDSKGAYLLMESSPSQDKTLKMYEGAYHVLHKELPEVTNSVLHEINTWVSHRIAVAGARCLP

mutant MGL = biological target: T3, mutant MGL (Homo sapiens, UniProt Q99685, L169S/L176S); test: MGL ThermoFluor assay - mutant; type: binding
T3 sequence (Q99685 1-303 L169S/L176S): T1 sequence (Q99685 1-303) with L169S, L176S
Method: The ThermoFluor (TF) assay is a 384-well plate-based binding assay that measures thermal stability of proteins^1,2. […] TF dye used in all experiments was 1,8-ANS (Invitrogen: A-47). Final TF assay conditions used for MGL studies were 0.07 mg/ml of mutant MGL, 100 μM ANS, 200 mM NaCl, 0.001% Tween-20 in 50 mM PIPES (pH=7.0).
Screening compound plates contained 100% DMSO compound solutions at a single concentration. […] Columns 12 and 24 were used as DMSO reference and contained no compound. […] Following compound dispension, protein and dye solutions were added to achieve the final assay volume of 3 μL.
Bar-coded assay plates were robotically loaded onto a thermostatically controlled PCR-type thermal block and then heated from 40 to 90° C. degrees at a ramp-rate of 1° C./min for all experiments. Fluorescence was measured by continuous illumination with UV light (Hamamatsu LC6), supplied via fiber optics and filtered through a band-pass filter (380-400 nm; >60D cutoff). Fluorescence emission of the entire 384-well plate was detected by measuring light intensity using a CCD camera (Sensys, Roper Scientific) filtered to detect 500±25 nm, resulting in simultaneous and independent readings of all 384 wells. A single image with 20-sec exposure time was collected at each temperature, and the sum of the pixel intensity in a given area of the assay plate was recorded vs temperature and fit to standard equations to yield the Tm^1. • 1.
For some experiments, quantitative NMR spectroscopy (qNMR) was used to measure concentration of the initial 100% DMSO compound solutions and, using the same fitting method, qKd values were determined

[2] = ThermoFluor concentration-response, read-out: MGL mutant ThermoFluor Kd
[3] = ThermoFluor thermal stability binding assay, read-out: MGL mutant ThermoFluor Kd
[4] = compound concentration measured by qNMR, read-out: MGL mutant ThermoFluor qKd (using qNMR conc.)
[5] = ThermoFluor, compound concentration measured by qNMR, read-out: MGL mutant ThermoFluor qKd (μM) (using qNMR conc.)

Row | Structure (SMILES) | IC50 [1] [nM] | 2-AG accumulation, % of vehicle control at 1 µM (MGL) [%] | Kd (mutant MGL; [2]) [µM] | Kd (mutant MGL; [3]) [µM] | Kd (mutant MGL; ThermoFluor, compound concentration measured by qNMR, read-out: MGL mutant ThermoFluor qKd (using qNMR conc.)) [µM] | Kd (mutant MGL; [4]) [µM] | Kd (mutant MGL; [5]) [µM]
1 | O=C(c1nccs1)N1CCN(C2CN(C(=O)c3sc4cc(-c5ccccc5)ccc4c3C(F)(F)F)C2)CC1 [Cpd 1095, 1-(1-{[6-Phenyl-3-(trifluoromethyl)-1-benzothiophen-2-yl]carbonyl}azetidin-3-yl)-4-(1,3-thiazol-2-ylcarbonyl)piperazine] | 11 | 484 | 0.011 | – | – | – | –
2 | Cc1cc(-c2ccc(Cl)c(C(F)(F)F)c2)ccc1C(=O)N1CC(N2CCN(C(=O)c3ccccc3)CC2)C1 [Cpd 256, 1-(1-{[4′-Chloro-3-methyl-3′-(trifluoromethyl)biphenyl-4-yl]carbonyl}azetidin-3-yl)-4-(phenylcarbonyl)piperazine] | 13.4 | 157 | – | 0.0333 | – | – | –
3 | O=C(c1ccc2c(c1)C1C=CCC1C(c1cccc(Cl)c1)N2)N1CC(N2CCN(C(=O)c3nccs3)CC2)C1 (stereo not drawn) [Cpd 667] | 14 | 856 | 0.013 | – | – | – | –
4 | O=C(c1cscn1)N1CCN(C2CN(C(=O)c3nn(-c4ccc(Cl)cc4Cl)c4c3CCC/C4=C\c3ccc(Cl)cc3)C2)CC1 [Cpd 1023] | 41 | 262 | 0.143 | – | – | – | –
5 | O=C(c1cc[nH]c1)N1CC(N2CCN(C(=O)c3cc4cc(C(F)(F)F)ccc4s3)CC2)C1 [Cpd 741, 1-[1-(1H-Pyrrol-3-ylcarbonyl)azetidin-3-yl]-4-{[5-(trifluoromethyl)-1-benzothiophen-2-yl]carbonyl}piperazine] | 298 | 182 | 0.2 | – | – | – | –
6 | O=C(Nc1ccc(C(=O)N2CC(N3CCN(C(=O)c4nccs4)CC3)C2)cc1)c1cc(F)ccc1Cl [Cpd 702] | 303 | 848 | – | – | 0.207 | – | –
7 | O=C(c1ccc(-c2cccc(C(F)(F)F)c2)cc1)N1CCN(C2CN(C(=O)c3cscn3)C2)CC1 [Cpd 1067, 1-[1-(1,3-Thiazol-4-ylcarbonyl)azetidin-3-yl]-4-{[3′-(trifluoromethyl)biphenyl-4-yl]carbonyl}piperazine] | 7 | 408 | 0.007 | – | – | – | –
8 | O=C(c1ccc(OCc2ccc3ccccc3n2)cc1)N1CC(N2CCN(C(=O)C(F)(F)F)CC2)C1 [Cpd 968] | 19 | 360 | – | – | – | 1.46 | –
9 | O=C(c1cscn1)N1CCN(C2CN(C(=O)c3cccc4nc(-c5ccc(F)cc5)oc34)C2)CC1 [Cpd 1282] | 2070 | 128 | – | 0.2 | – | – | –
10 | O=C(c1cc(F)c2c(ccn2-c2ccc(F)cc2)c1)N1CC(N2CCN(C(=O)c3nccs3)CC2)C1 [Cpd 1350, 7-Fluoro-1-(4-fluorophenyl)-5-({3-[4-(1,3-thiazol-2-ylcarbonyl)piperazin-1-yl]azetidin-1-yl}carbonyl)-1H-indole] | < 5 | 873 | – | – | – | 0.001 | –
11 | O=C(c1ccc(F)c(Cc2ccc(C(F)(F)F)cc2)c1)N1CC(N2CCN(C(=O)c3nccs3)CC2)C1 [Cpd 1007, 1-[1-({4-Fluoro-3-[4-(trifluoromethyl)benzyl]phenyl}carbonyl)azetidin-3-yl]-4-(1,3-thiazol-2-ylcarbonyl)piperazine] | 27 | 180 | 0.259 | – | – | – | –
12 | O=C(c1cnc2c(ccn2-c2ccc(F)cc2)c1)N1CC(N2CCN(C(=O)c3nccs3)CC2)C1 [Cpd 1056] | 6 | 498 | – | – | – | – | 0.012
13 | Cc1cc(C(=O)N2CC(N3CCN(C(=O)c4nccs4)CC3)C2)sc1-c1ccc(C(F)(F)F)cc1 [Cpd 1352] | < 5 | 548 | – | – | – | – | 0.008
14 | COc1cc(C(=O)N2CC(N3CCN(C(=O)c4cscn4)CC3)C2)ccc1-c1cccc(C(F)(F)F)c1 [Cpd 248, 1-(1-{[2-Methoxy-3′-(trifluoromethyl)biphenyl-4-yl]carbonyl}azetidin-3-yl)-4-(1,3-thiazol-4-ylcarbonyl)piperazine] | 7 | 312 | – | 0.0067 | – | – | –
